In patent US4882420A, “Dihalo-statine substituted renin inhibitors” (The Upjohn Company, priority 1986, dated 1989):

Target: T1, renin (plasma renin activity of human plasma) (Homo sapiens, UniProt P00797)
T1 construct: Lyophilized human plasma with 0.1% EDTA is obtained from New England Nuclear; tissue New England Nuclear Plasma Renin Activity Control; host or cells: human plasma (lyophilized, reconstituted)
T1 sequence (P00797 67-406): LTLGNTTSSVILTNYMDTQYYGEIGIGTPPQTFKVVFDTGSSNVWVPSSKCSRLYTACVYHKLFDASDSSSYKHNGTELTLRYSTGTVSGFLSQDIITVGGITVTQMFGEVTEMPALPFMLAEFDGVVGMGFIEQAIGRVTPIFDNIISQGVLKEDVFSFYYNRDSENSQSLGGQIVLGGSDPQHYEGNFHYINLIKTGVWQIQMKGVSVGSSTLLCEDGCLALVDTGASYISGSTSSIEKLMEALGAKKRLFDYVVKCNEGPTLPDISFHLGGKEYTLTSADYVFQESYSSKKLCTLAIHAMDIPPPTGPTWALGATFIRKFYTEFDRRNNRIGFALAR
Assay: GAMMACOAT plasma renin activity (PRA) radioimmunoassay, inhibition of angiotensin I generation in reconstituted human plasma
Assay type: biochemical
Conditions: for potency estimated from few doses: reconstituted lyophilized human plasma, 90 minutes at 37° C., estimated by plotting two inhibitor concentrations, read-out: IC50 (I50, concentration producing 50% inhibition of plasma renin activity)
Procedure: Lyophilized human plasma with 0.1% EDTA is obtained from New England Nuclear, North Billerica, Mass. 01862 as "Plasma Renin Activity Control". This lyophilized plasma is reconstituted, on the day of the assay, with cold sterile distilled water according to directions on the vial. The plasma renin activity (PRA) of the reconstituted plasma is assayed with "GAMMACOAT [^125 I] Plasma Renin Activity Radioimmunoassay Kit" supplied by Clinical Assays, a Division of Travenol Laboratories, Inc., Cambridge, Mass. 02139. The procedure used with these kits is carried out essentially as described in the literature which accompanies them. The initial (enzymatic generation of Angiotensin 1) step is modified slightly to accommodate the testing of renin inhibitors and to minimize the amount of plasma required to perform the assay. Thus, for every milliliter of reconstituted plasma used in the assay, there is added and vortexed 10 μl of PMSF (0.3M phenylmethylsulfonyl fluoride in ethanol) and 100 μl of maleate generation buffer, both provided in the kit. 250 μl of this mixture is then transferred to each tube used in the generation step along with 10 μl of the potential renin inhibitor suspended or dissolved in 1% Tween 80 in water. […]
In the case of renin inhibitory peptide (RIP), 100 μl of the 4° C. blank is added to a GAMMACOAT tube. […] The tubes are then counted in a gamma counter. The results of the RIP are evaluated with the Rodbard Radioimmunoassay Program and the plasma renin activity (PRA) is expressed as […]. […] In addition to I50 values, relative potencies are also calculated. A relative potency is determined by comparing the I50 of RIP to the I50 of the compound. However, it must be emphasized that relative potencies are calculated from the I50 obtained for RIP on the day the compound is assayed and not from the average I50 for RIP.
It has been determined that the GAMMACOAT-PRA assay is a suitable replacement for the RENAK assay (supplied by Hoffman-LaRoche and previously known as a diagnostic test for high renin states) to determine the activity of potential renin inhibitors.

potency estimated from few doses [nM]	relative potency (I50 of RIP compared to I50 of the compound) (relative to RIP (H-Pro-His-Pro-Phe-His-Phe-Phe-Val-Tyr-Lys-OH) assayed on the same day)	Structure (SMILES)
1.4		CC[C@H](C)[C@H](NC(=O)C(F)(F)C(=O)C(CC(C)C)NC(=O)[C@H](Cc1c[nH]cn1)NC(=O)[C@H](Cc1ccccc1)NC(=O)OC(C)(C)C)C(=O)NCc1ccccn1 (stereo partly drawn) [N-tert-butyloxycarbonyl-L-phenylalanyl-L-histidyl-4-amino-2,2-difluoro-4-(2-methylpropyl)-1,3-dioxobutyl-L-isoleucyl-2-pyridylmethylamide]
12	1,000	CC[C@H](C)[C@H](NC(=O)C(F)(F)[C@H](O)[C@H](CC(C)C)NC(=O)[C@H](Cc1c[nH]cn1)NC(=O)[C@H](Cc1ccccc1)NC(=O)OC(C)(C)C)C(=O)NCc1ccccn1 [N-tert-butyloxycarbonyl-L-phenylalanyl-L-histidyl-4S-amino-2,2-difluoro-3R-hydroxy-4-(2-methylpropyl)-1-oxobutyl-L-isoleucyl-2-pyridylmethylamide]
